Measured values taken from patent US8148391B2 (Cephalon, Inc., priority 2006, dated 2012).
pIC50: −log10 of the molar value. Read-outs that look alike come from different tables or passages of the source.

Key:
[1] = biological target: T1, baculovirus-expressed ALK (Homo sapiens, UniProt Q9UM73); test: ALK Kinase Assay (ELISA-type, time-resolved fluorescence); format: biochemical
T1 construct: host or cells: baculovirus expression system
Summary of the method: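 Wells were coated with phospholipase C-γ at 10 μg/mL in Tris-buffered saline. Adding 30 ng/ml enzyme started the reaction, which ran at 37° C for 15 minutes before Eu-N1 PT66 antibody detection. Percent inhibition versus log10 concentration gave IC50 by variable-slope fit.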

[2] = biological target: T2, c-Met (cytoplasmic domain) (Homo sapiens, UniProt P08581); test: c-Met Kinase Assay (same methods as for ALK, with modifications); format: biochemical
T2 construct: 10 ng/mL c-Met (cytoplasmic domain, Invitrogen Corporation #PV3143); purchased Invitrogen Corporation PV3143
Summary of the method: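 IC50 values were fitted by variable-slope sigmoidal regression of percent inhibition against log compound concentration. Phosphorylation was read with Eu-N1 PT66 antibody after a 15 min, 37 °C reaction. The reaction was initiated with 10 ng/mL c-Met cytoplasmic domain on wells coated with 10 μg/mL PLC-γ in TBS.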

[3] = ALK kinase inhibition, 1 μM ATP (Km level), read-out: ALK Activity
[4] = c-Met kinase inhibition, 1 μM ATP (Km level), read-out: cMet Activity
[5] = 1 μM ATP (Km level), 30 ng/ml ALK, 37° C., 15 minutes, read-out: ALK Activity (ALK kinase inhibition, IC50 class)
[6] = 1 μM ATP (Km level), 10 ng/mL c-Met, read-out: cMet Activity (c-Met kinase inhibition, IC50 class)
[7] = ALK kinase inhibition, 1 μM ATP, read-out: ALK Activity
[8] = c-Met kinase inhibition, 1 μM ATP, read-out: cMet Activity
[9] = 1 μM ATP (Km level), read-out: ALK Activity (ALK Kinase Inhibition, IC50)
[10] = 1 μM ATP (Km level), read-out: cMet Activity (c-Met Kinase Inhibition, IC50)

T1 sequence (Q9UM73 19-1620): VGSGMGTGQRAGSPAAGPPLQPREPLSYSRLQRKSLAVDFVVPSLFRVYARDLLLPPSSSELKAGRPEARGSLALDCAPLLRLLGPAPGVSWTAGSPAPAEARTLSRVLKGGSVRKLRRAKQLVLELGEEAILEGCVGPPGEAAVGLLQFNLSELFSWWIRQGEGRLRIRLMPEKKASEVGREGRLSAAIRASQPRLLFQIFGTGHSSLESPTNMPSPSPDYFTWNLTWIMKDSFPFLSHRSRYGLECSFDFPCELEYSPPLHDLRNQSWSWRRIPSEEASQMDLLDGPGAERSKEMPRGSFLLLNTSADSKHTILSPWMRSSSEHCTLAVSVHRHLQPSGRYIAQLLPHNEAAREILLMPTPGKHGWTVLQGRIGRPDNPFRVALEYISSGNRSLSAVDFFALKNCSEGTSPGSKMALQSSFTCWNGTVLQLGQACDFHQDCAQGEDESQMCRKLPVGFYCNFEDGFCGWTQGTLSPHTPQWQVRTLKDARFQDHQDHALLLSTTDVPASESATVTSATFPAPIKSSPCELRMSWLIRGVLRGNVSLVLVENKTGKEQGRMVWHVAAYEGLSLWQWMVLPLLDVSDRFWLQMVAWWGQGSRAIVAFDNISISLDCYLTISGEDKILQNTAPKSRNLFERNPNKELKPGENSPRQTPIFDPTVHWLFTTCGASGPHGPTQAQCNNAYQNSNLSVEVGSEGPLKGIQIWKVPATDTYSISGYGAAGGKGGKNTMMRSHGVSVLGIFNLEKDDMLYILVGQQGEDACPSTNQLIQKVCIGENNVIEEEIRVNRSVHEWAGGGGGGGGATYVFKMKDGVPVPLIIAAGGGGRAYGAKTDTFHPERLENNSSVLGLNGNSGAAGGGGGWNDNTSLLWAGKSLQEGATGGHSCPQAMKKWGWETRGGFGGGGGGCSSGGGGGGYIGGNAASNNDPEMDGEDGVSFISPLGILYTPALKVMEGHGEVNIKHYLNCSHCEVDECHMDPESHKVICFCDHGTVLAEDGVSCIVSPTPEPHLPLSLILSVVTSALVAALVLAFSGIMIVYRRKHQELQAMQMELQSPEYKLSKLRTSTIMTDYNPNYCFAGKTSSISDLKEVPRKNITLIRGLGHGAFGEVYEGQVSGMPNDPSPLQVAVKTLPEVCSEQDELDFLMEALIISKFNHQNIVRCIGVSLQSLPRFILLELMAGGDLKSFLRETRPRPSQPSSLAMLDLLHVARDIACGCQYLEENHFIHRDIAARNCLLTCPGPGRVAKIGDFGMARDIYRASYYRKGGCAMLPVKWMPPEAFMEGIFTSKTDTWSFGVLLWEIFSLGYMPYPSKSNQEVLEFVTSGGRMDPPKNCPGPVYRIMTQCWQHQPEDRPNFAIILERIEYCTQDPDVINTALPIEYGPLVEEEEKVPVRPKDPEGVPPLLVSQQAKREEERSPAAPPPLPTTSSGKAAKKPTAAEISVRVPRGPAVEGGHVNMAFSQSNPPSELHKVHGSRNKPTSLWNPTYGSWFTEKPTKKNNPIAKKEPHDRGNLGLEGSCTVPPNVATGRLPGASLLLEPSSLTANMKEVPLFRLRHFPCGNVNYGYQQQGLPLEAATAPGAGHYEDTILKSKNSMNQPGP
T2 sequence (P08581 956-1390 limits assumed): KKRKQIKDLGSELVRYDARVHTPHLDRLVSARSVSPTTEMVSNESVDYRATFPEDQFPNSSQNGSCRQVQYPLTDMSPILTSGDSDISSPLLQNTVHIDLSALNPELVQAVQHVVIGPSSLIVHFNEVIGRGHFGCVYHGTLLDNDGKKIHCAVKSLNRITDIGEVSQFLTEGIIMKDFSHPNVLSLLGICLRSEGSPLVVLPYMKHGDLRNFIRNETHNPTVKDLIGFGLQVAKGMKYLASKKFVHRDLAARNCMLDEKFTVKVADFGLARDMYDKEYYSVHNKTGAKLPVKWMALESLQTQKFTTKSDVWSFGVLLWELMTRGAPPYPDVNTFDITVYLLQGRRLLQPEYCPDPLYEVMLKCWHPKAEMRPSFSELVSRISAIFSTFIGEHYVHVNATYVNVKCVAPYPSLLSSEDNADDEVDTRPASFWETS

For `CNC(=O)c1cccc(Cl)c1Nc1nc(Nc2ccc3c(c2)C2CCC(C3)N2CCOC)ncc1Cl` (stereo not shown) [Example 91, 3-Chloro-2-{5-chloro-2-[12-(2-methoxy-ethyl)-12-aza-tricyclo[7.2.1.0*2,7*]dodeca-2(7),3,5-trien-4-ylamino]-pyrimidin-4-ylamino}-N-methyl-benzamide], the pIC50 [1, 3] was 6.00 to 7.00 and the pIC50 [2, 4] was greater than 7.00.
With `COCCN1CCc2ccc(Nc3ncc(Cl)c(NC4CCCCC4)n3)cc2CC1` [Example 1377, 5-Chloro-N(4)-cyclohexyl-N(2)-[3-(2-methoxy-ethyl)-2,3,4,5-tetrahydro-1H-benzo[d]azepin-7-yl]-pyrimidine-2,4-diamine] the pIC50 [1, 5] was greater than 7.00 and the pIC50 [2, 6] was 6.00 to 7.00.
Molecule `CNC(=O)c1cc(C)cc(C)c1Nc1nc(Nc2ccc3c(c2)CN(C)C(=O)CC3)ncc1Cl` [Example 1801, 2-[5-Chloro-2-(2-methyl-3-oxo-2,3,4,5-tetrahydro-1H-benzo[c]azepin-8-ylamino)-pyrimidin-4-ylamino]-3,5,N-trimethyl-benzamide] has a pIC50 [1, 7] of 5.00 to 6.00 and a pIC50 [2, 8] of less than 5.00.
With `CC(C)S(=O)(=O)c1ccccc1Nc1nc(Nc2ccc3c(c2)CCC(O)CC3)ncc1Cl` (stereo not shown) [Example 1037, 2-{5-Chloro-4-[2-(propane-2-sulfonyl)-phenylamino]-pyrimidin-2-ylamino}-6,7,8,9-tetrahydro-5H-benzocyclohepten-7-ol] the pIC50 [1, 5] was greater than 7.00 and the pIC50 [2, 6] was 6.00 to 7.00.
`CCN1CCN(CC)c2cc(Nc3ncc(Cl)c(Nc4cc(Cl)ccc4OC)n3)ccc2C1` [Example 719, 5-Chloro-N*4*(5-chloro-2-methoxy-phenyl-N*2*-(1,4-diethyl-2,3,4,5-tetrahydro-1H-benzo[e][1,4]diazepin-8-yl)-pyrimidine)-2,4-diamine] gave a pIC50 [1, 9] greater than 7.00 and a pIC50 [2, 10] of 5.00 to 6.00.
For `COCCNC1CCCc2c(ccc(Nc3ncc(Cl)c(Nc4ccccc4S(=O)(=O)C(C)C)n3)c2OC)C1` (stereo not shown) [Example 959, 5-Chloro-N(2)-[1-methoxy-6-(2-methoxy-ethylamino)-6,7,8,9-tetrahydro-5H-benzocyclohepten-2-yl]-N(4)-[2-(propane-2-sulfonyl)-phenyl]-pyrimidine-2,4-diamine], the pIC50 [1, 9] was greater than 7.00 and the pIC50 [2, 10] was less than 5.00.
With `CC1(C)CCCOc2c(Nc3ncc(Cl)c(Nc4ccccc4-n4cccn4)n3)cccc21` [Example 885, 5-Chloro-N*2*-(5,5-dimethyl-2,3,4,5-tetrahydro-benzo[b]oxepin-9-yl)-N*4*-(2-pyrazol-1-yl-phenyl)-pyrimidine-2,4-diamine] the pIC50 [1, 9] was 6.00 to 7.00 and the pIC50 [2, 10] was less than 5.00.
Molecule `CNC(=O)c1ccc(NC(C)=O)cc1Nc1nc(Nc2ccc3c(c2)C(C)(C)CCC(=O)N3)ncc1Cl` [Example 1244, 4-Acetylamino-2-[5-chloro-2-(5,5-dimethyl-2-oxo-2,3,4,5-tetrahydro-1H-1-benzazepin-7-ylamino)-pyrimidin-4-ylamino]-N-methyl-benzamide] has a pIC50 [1, 5] of 5.00 to 6.00 and a pIC50 [2, 6] of 5.00 to 6.00.
With `C#CCNC(=O)c1cccc(F)c1Nc1nc(Nc2ccc3c(c2)N(CC)C(=O)C(NC(=O)COC)CC3)ncc1Cl` (stereo not shown) [Example 1499, 2-{5-Chloro-2-[1-ethyl-3-(2-methoxy-acetylamino)-2-oxo-2,3,4,5-tetrahydro-1H-benzo[b]azepin-8-ylamino]-pyrimidin-4-ylamino}-3-fluoro-N-prop-2-ynyl-benzamide] the pIC50 [1, 7] was 6.00 to 7.00 and the pIC50 [2, 8] was greater than 7.00.
`CNC(=O)c1cccc(F)c1Nc1nc(Nc2ccc3c(c2)N(C(C)=O)CC(=O)NC3)ncc1Cl` [Example 1877, 2-[2-(1-Acetyl-3-oxo-2,3,4,5-tetrahydro-1H-benzo[e][1,4]diazepin-8-ylamino)-5-chloro-pyrimidin-4-ylamino]-3-fluoro-N-methyl-benzamide] was tested, and the pIC50 [1, 3] was greater than 7.00 and the pIC50 [2, 4] was greater than 7.00.
`COc1ccc2c(c1Nc1ncc(Cl)c(N[C@@H]3CCCC[C@H]3NS(C)(=O)=O)n1)CCC(N1CCOCC1)CC2` (stereo partly drawn) [Example 1070, N-{(1R,2R)-2-[5-Chloro-2-(2-methoxy-7-morpholin-4-yl-6,7,8,9-tetrahydro-5H-benzocyclohepten-1-ylamino)-pyrimidin-4-ylamino]-cyclohexyl}-methanesulfonamide] was tested, and the pIC50 [1, 5] was 6.00 to 7.00 and the pIC50 [2, 6] was less than 5.00.
